The text below walks through data of patent US11220674B2, “Stabilization of dehydrogenases with stable coenzymes” (ROCHE DIABETES CARE, INC., priority 2009, dated 2022).

Test [1] addresses glucose dehydrogenase (GlucDH) (Bacillus subtilis, UniProt P12310). As to the kind of experiment: SDS gel electrophoresis of GlucDH after storage with coenzyme. How it is done: Test conditions: MW, 10 220 kDa markers; 1: GlucDH/NAD, 5 weeks at 6° C.; 2: GlucDH/NAD, 5 weeks at 32° C./85% relative humidity; 3: GlucDH/cNAD, 5 weeks at 6° C.; 4: GlucDH/cNAD, 5 weeks at 32° C./85% relative humidity.
Test conditions: MW, 10 220 kDa markers; 1: GlucDH 8.5 mg/ml, NAD, 0 hours; 2: GlucDH 8.5 mg/ml, NAD, 22 hours; 3: GlucDH 8.5 mg/ml, NAD, 96 hours; 4: GlucDH 8.5 mg/ml, NAD, 118 hours; 5: GlucDH 8.5 mg/ml, NAD, 140 hours; 6: GlucDH 8.5 mg/ml, NAD, 188 hours; 7: GlucDH 8.5 mg/ml, NAD, 476 hours; 8: GlucDH 8.5 mg/ml, cNAD, 0 hours; 9: GlucDH 8.5 mg/ml, cNAD, 188 hours; 10: GlucDH 8.5 mg/ml, cNAD, 476 hours.

The target in test [2] is glucose dehydrogenase (Bacillus subtilis, UniProt P12310). As to the kind of experiment: Electrochemical glucose determination with GlucDH, coenzyme and mediator (current). Conditions: 25 mM coenzyme; mediator 1-(3-carboxypropoxy)-5-ethylphenazinium trifluoromethanesulfonate. How it is done:
FIG. 20 is a depiction of the current measured as a function of the glucose concentration in the electrochemical determination of glucose using glucose dehydrogenase in the presence of NAD and cNAD, respectively. Test conditions: 25 mM NAD and cNAD, respectively; 2.5 seconds delay; 5 seconds measurement time.
As alternative to photometry it is also possible to employ an electrochemical measurement for the purpose of determining analytes.

The target of test [3] is T1, alcohol dehydrogenase from yeast (Saccharomyces cerevisiae, UniProt P00330).
T1 sequence (P00330 1-348): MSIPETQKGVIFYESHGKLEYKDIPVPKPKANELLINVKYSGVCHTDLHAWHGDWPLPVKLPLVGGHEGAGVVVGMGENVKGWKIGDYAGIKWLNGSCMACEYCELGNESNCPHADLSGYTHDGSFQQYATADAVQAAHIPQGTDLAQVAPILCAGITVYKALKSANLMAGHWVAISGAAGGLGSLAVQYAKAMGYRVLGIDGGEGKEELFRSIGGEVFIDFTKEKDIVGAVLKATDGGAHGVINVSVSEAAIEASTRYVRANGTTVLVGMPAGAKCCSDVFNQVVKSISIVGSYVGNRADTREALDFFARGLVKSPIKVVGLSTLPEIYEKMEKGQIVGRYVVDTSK
The test is described as follows: Stability of alcohol dehydrogenase in liquid phase at 35° C. with coenzyme (residual activity). The format is biochemical. The note with it: after 65 hours at 35° C. How it is done: FIG. 14 is a depiction of the stability of alcohol dehydrogenase from yeast in the presence of NAD and cNAD, respectively, in liquid phase at 35° C. over a period of 65 hours. Test conditions: ADH 5 mg/ml; NAD and cNAD, respectively, 50 mg/ml; buffer: 75 mM Na4P207, glycine, pH 9.0; temperature 35° C.
cNAD or NAD were added to an alcohol detection solution. These mixtures were stored at 35° C. The stability of the enzyme was then checked at regular intervals, and the residual activity of the enzyme was determined.
After 65 hours at 35° C., the residual activity of alcohol dehydrogenase in the presence of the native coenzyme NAD is about 6%, whereas the residual activity of the enzyme in the presence of the artificial coenzyme cNAD is still about 60%.

glucose dehydrogenase (GlucDH), sequence (P12310 whole entry): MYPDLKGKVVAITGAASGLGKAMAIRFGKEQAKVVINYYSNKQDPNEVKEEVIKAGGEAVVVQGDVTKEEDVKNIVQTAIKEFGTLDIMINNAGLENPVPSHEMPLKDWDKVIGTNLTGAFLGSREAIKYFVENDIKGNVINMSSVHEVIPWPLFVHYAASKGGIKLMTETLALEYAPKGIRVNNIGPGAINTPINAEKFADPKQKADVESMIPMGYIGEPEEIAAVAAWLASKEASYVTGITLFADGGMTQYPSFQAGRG
glucose dehydrogenase, sequence (P12310 whole entry): as above

For `NC(=O)c1ccc[n+]([C@@H]2C[C@H](COP(=O)([O-])OP(=O)(O)OC[C@H]3O[C@@H](n4cnc5c(N)ncnc54)[C@H](O)[C@@H]3O)[C@@H](O)[C@H]2O)c1` [cNAD, carba-NAD], the “enzyme band in SDS gel” value in test [1] (storage at 50° C., after 476 hours) was “only slight change”; in test [1] (storage for 5 weeks at 32° C. and 85% relative humidity) it was “still identifiable as a band with the expected mobility”. Besides, the “current required to reoxidize the reduced mediator versus glucose concentration” value in test [2] is given as “linearly dependent on the glucose concentration”. Also, the “residual activity of alcohol dehydrogenase” value in test [3] is on record as “about 60%”.
